Data from patent publication US10765114B2, “4-amino-6-(pyridyl and 2-substitutedphenyl)-picolinates and 6-amino-2-(pyridyl and 2-substitutedphenyl)-pyrimidine-4-carboxylates and their use as herbicides” (Dow AgroSciences LLC, priority 2013, dated 2020).
Like-named read-outs stand apart in the source and are kept apart here.

What was measured:
[1] = test system: Key Broadleaf Weed and Crop Species; assay: Post-Emergent Test II (Table 5); type: in vivo; conditions: post-emergence, 336 h; for pest or weed control at 70 g/ha: application rate 70 (kg ai/ha; footnote: g ai/ha); for pest or weed control at 140 g/ha: application rate 140 (kg ai/ha; footnote: g ai/ha)
Summary of the method: (§1)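 Plants grown in a greenhouse (~15 h photoperiod, 23-29° C day) to first or second true leaf stage were sprayed post-emergence at 187 L/ha with compound in acetone/DMSO-based aqueous spray containing crop oil concentrate and surfactant, applied at a high rate plus ½× to 1/16× serial rates. Injury was scored visually 14 days later, 0-100% versus untreated plants.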

[2] = test system: Key Grass and Sedge Weeds as well as Grass Crops; assay: Post-Emergent Test II (Table 6); type: in vivo; conditions: post-emergence, 336 h, 14 days after application; for pest or weed control at 70 g/ha: 70 g ai/ha; for pest or weed control at 140 g/ha: 140 g ai/ha
Summary of the method: as §1

[3] = Abutilon theophrasti, ABUTH: velvetleaf (Abutilon theophrasti), read-out: Visual Growth Reduction (%) 14 Days After Application ABUTH
[4] = Amaranthus retroflexus, AMARE: redroot pigweed (Amaranthus retroflexus), read-out: Visual Growth Reduction (%) 14 Days After Application AMARE
[5] = Brassica napus, BRSSS: oilseed rape, canola (Brassica napus), read-out: Visual Growth Reduction (%) 14 Days After Application BRSSS
[6] = Chenopodium album, CHEAL: lambsquarters (Chenopodium album), read-out: Visual Growth Reduction (%) 14 Days After Application CHEAL
[7] = Euphorbia heterophylla, EPHHL: wild poinsettia (Euphorbia heterophylla), read-out: Visual Growth Reduction (%) 14 Days After Application EPHHL
[8] = Helianthus annuus, HELAN: sunflower (Helianthus annuus), read-out: Visual Growth Reduction (%) 14 Days After Application HELAN
[9] = Viola tricolor, VIOTR: wild pansy (Viola tricolor), read-out: Visual Growth Reduction (%) 14 Days After Application VIOTR
[10] = CYPSS, read-out: Visual Growth Reduction (%) 14 Days After Application CYPSS
[11] = DIGSA: crabgrass (Digitaria sanguinalis), read-out: Visual Growth Reduction (%) 14 Days After Application DIGSA
[12] = ECHSS, read-out: Visual Growth Reduction (%) 14 Days After Application ECHSS
[13] = ORYSS (crop), read-out: Visual Growth Reduction (%) 14 Days After Application ORYSS
[14] = SETFA: giant foxtail (Setaria faberi), read-out: Visual Growth Reduction (%) 14 Days After Application SETFA
[15] = SORVU: grain sorghum (Sorghum vulgare), read-out: Visual Growth Reduction (%) 14 Days After Application SORVU
[16] = TRZSS (crop), read-out: Visual Growth Reduction (%) 14 Days After Application TRZSS
[17] = ZEAMX: maize, corn (Zea mays), read-out: Visual Growth Reduction (%) 14 Days After Application ZEAMX

| SMILES | pest or weed control at 70 g/ha [1, 3] | pest or weed control at 140 g/ha [1, 3] | pest or weed control at 70 g/ha [1, 4] | pest or weed control at 140 g/ha [1, 4] | pest or weed control at 70 g/ha [1, 5] | pest or weed control at 140 g/ha [1, 5] | pest or weed control at 70 g/ha [1, 6] | pest or weed control at 140 g/ha [1, 6] | pest or weed control at 70 g/ha [1, 7] | pest or weed control at 140 g/ha [1, 7] | pest or weed control at 70 g/ha [1, 8] | pest or weed control at 140 g/ha [1, 8] | pest or weed control at 70 g/ha [1, 9] | pest or weed control at 140 g/ha [1, 9] | melting point | pest or weed control at 70 g/ha [2, 10] | pest or weed control at 140 g/ha [2, 10] | pest or weed control at 70 g/ha [2, 11] | pest or weed control at 140 g/ha [2, 11] | pest or weed control at 70 g/ha [2, 12] | further results |
| --- | --- | --- | --- | --- | --- | --- | --- | --- | --- | --- | --- | --- | --- | --- | --- | --- | --- | --- | --- | --- | --- |
| Nc1c(F)c(-c2ccc(C(F)(F)F)nc2)nc(C(=O)O)c1Cl [Compound 46, 4-amino-5-chloro-3-fluoro-6′-(trifluoromethyl)-[2,3′-bipyridine]-6-carboxylic acid] | 85 to 94% | 95 to 100% | 95 to 100% | 95 to 100% | 95 to 100% | 95 to 100% | 95 to 100% | 95 to 100% | 95 to 100% | 95 to 100% | 95 to 100% | 95 to 100% | 85 to 94% | 95 to 100% | 164 °C | 95 to 100% | 95 to 100% | 95 to 100% | 95 to 100% | 95 to 100% | pest or weed control at 140 g/ha [2, 12]: 95 to 100%; pest or weed control at 70 g/ha [2, 13]: 75 to 84%; pest or weed control at 140 g/ha [2, 13]: 95 to 100%; pest or weed control at 70 g/ha [2, 14]: 95 to 100%; pest or weed control at 140 g/ha [2, 14]: 95 to 100%; pest or weed control at 70 g/ha [2, 15]: 85 to 94%; pest or weed control at 140 g/ha [2, 15]: 85 to 94%; pest or weed control at 70 g/ha [2, 16]: 75 to 84%; pest or weed control at 140 g/ha [2, 16]: 85 to 94%; pest or weed control at 70 g/ha [2, 17]: 85 to 94%; pest or weed control at 140 g/ha [2, 17]: 85 to 94% |
| COC(=O)c1nc(-c2ccc(C(F)(F)F)nc2F)nc(N)c1Cl [Compound 47] | 0 to 29% | 0 to 29% | 0 to 29% | 0 to 29% | 0 to 29% | 0 to 29% | 0 to 29% | 45 to 59% | 0 to 29% | 0 to 29% | 0 to 29% | 0 to 29% | 0 to 29% | 0 to 29% | 150 to 153 °C | 0 to 29% | 0 to 29% | 0 to 29% | 0 to 29% | 0 to 29% | pest or weed control at 140 g/ha [2, 12]: 0 to 29%; pest or weed control at 70 g/ha [2, 13]: 0 to 29%; pest or weed control at 140 g/ha [2, 13]: 0 to 29%; pest or weed control at 70 g/ha [2, 14]: 0 to 29%; pest or weed control at 140 g/ha [2, 14]: 0 to 29%; pest or weed control at 70 g/ha [2, 15]: 0 to 29%; pest or weed control at 140 g/ha [2, 15]: 0 to 29%; pest or weed control at 70 g/ha [2, 16]: 0 to 29%; pest or weed control at 140 g/ha [2, 16]: 0 to 29%; pest or weed control at 70 g/ha [2, 17]: 0 to 29%; pest or weed control at 140 g/ha [2, 17]: 0 to 29% |
| COC(=O)c1nc(-c2ccc(Cl)c(F)c2C)cc(N)c1Cl [Compound 73] | 95 to 100% | 95 to 100% | 95 to 100% | 95 to 100% | 95 to 100% | 95 to 100% | 95 to 100% | 95 to 100% | 75 to 84% | 75 to 84% | 95 to 100% | 95 to 100% | 85 to 94% | 95 to 100% | 128 to 134 °C | 95 to 100% | 95 to 100% | 0 to 29% | 0 to 29% | 30 to 44% | pest or weed control at 140 g/ha [2, 12]: 45 to 59%; pest or weed control at 70 g/ha [2, 13]: 0 to 29%; pest or weed control at 140 g/ha [2, 13]: 0 to 29%; pest or weed control at 70 g/ha [2, 14]: 30 to 44%; pest or weed control at 140 g/ha [2, 14]: 45 to 59%; pest or weed control at 70 g/ha [2, 15]: 45 to 59%; pest or weed control at 140 g/ha [2, 15]: 60 to 74%; pest or weed control at 70 g/ha [2, 16]: 45 to 59%; pest or weed control at 140 g/ha [2, 16]: 60 to 74%; pest or weed control at 70 g/ha [2, 17]: 60 to 74%; pest or weed control at 140 g/ha [2, 17]: 75 to 84% |
